For 28 compounds, Ki results are on record in ChEMBL document CHEMBL1137285, “1-Alkyl-2-aryl-4-(1-naphthoyl)pyrroles: new high affinity ligands for the cannabinoid CB1 and CB2 receptors” (Bioorg Med Chem Lett, 2006).

One assay addresses Cannabinoid receptor 1 (Rattus norvegicus, UniProt P20272). In words: Displacement of [3H]CP-55940 from CB1 receptor in rat brain. It is filed as tissue-based.
In a further assay the target is Cannabinoid receptor 2 (Homo sapiens, UniProt P34972). The assay can be described thus: Displacement of [3H]CP-55940 from human cloned CB2 receptor.
Cannabinoid receptor 2, sequence (P34972 whole entry): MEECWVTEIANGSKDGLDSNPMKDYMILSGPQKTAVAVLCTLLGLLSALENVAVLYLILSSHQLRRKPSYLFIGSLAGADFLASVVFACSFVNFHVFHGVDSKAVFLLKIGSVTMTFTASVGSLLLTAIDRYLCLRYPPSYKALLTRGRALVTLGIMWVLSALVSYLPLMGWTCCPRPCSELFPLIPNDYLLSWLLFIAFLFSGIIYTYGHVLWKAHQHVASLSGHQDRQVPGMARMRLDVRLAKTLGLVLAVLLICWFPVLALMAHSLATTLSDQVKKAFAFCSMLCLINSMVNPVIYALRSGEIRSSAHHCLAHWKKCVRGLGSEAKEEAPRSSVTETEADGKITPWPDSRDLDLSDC

Cannabinoid receptor 1, sequence (P20272 whole entry): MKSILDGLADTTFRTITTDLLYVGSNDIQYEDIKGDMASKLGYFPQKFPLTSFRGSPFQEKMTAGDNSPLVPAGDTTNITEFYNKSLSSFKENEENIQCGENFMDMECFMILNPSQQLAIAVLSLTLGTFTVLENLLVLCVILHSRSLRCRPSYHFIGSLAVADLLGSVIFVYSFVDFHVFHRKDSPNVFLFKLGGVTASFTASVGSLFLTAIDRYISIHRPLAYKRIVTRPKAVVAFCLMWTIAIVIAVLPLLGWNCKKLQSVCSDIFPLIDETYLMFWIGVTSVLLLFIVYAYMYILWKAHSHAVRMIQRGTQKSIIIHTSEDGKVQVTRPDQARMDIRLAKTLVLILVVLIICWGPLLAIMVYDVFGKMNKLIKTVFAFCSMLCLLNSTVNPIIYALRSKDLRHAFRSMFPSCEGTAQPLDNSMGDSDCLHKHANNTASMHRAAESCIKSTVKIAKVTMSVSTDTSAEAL

In the case of `CCCCn1cc(C(=O)c2cccc3ccccc23)cc1-c1ccccc1`, the inhibition constant (Ki) at Cannabinoid receptor 1 stood at 60 nM; at Cannabinoid receptor 2, 15 nM.

As for `CCCCCn1cc(C(=O)c2cccc3ccccc23)cc1-c1ccccc1Cl`, the values for the Ki at Cannabinoid receptor 1 and at Cannabinoid receptor 2 were 7.9 nM and 5.2 nM, respectively.

As to `CCCCCn1cc(C(=O)c2cccc3ccccc23)cc1-c1ccccc1F`, the Ki on Cannabinoid receptor 1 was determined as 7.7 nM; at Cannabinoid receptor 2, 3.3 nM.

Consider `CCCn1cc(C(=O)c2cccc3ccccc23)cc1-c1ccccc1`, for which the Ki on Cannabinoid receptor 1 was 404 nM; at Cannabinoid receptor 2 it was 104 nM.

As for `CCCCCn1cc(C(=O)c2cccc3ccccc23)cc1-c1ccccc1OC`, the Ki on Cannabinoid receptor 1 turned out to be 29 nM; at Cannabinoid receptor 2 it was 20 nM.

For `CCCCCn1cc(C(=O)c2cccc3ccccc23)cc1-c1cccc([N+](=O)[O-])c1`, the Ki came out at 100 nM on Cannabinoid receptor 1 and 41 nM on Cannabinoid receptor 2.

Take `CCCCCn1cc(C(=O)c2cccc3ccccc23)cc1-c1cccnc1`: the values for the Ki at Cannabinoid receptor 1 and on Cannabinoid receptor 2 were 191 nM and 24 nM, respectively.

Take `CCCCCn1cc(C(=O)c2cccc3ccccc23)cc1-c1ccc(Cl)cc1`: the Ki at Cannabinoid receptor 1 was 276 nM; at Cannabinoid receptor 2 it was 25 nM.

As to `CCCCCn1cc(C(=O)c2cccc3ccccc23)cc1-c1cccc(C)c1`, the Ki on Cannabinoid receptor 1 came to 67 nM; at Cannabinoid receptor 2, 39 nM.

Regarding `CCCCCn1cc(C(=O)c2cccc3ccccc23)cc1-c1cccc(C(F)(F)F)c1`, the Ki was found to be 245 nM on Cannabinoid receptor 1 and 71 nM on Cannabinoid receptor 2.

Regarding `CCCCCn1cc(C(=O)c2cccc3ccccc23)cc1-c1ccc(CCCC)cc1`, the Ki at Cannabinoid receptor 1 was 42 nM; on Cannabinoid receptor 2, 64 nM.

For the compound `CCCCCCCn1cc(C(=O)c2cccc3ccccc23)cc1-c1ccccc1`, the Ki on Cannabinoid receptor 1 is 21 nM; on Cannabinoid receptor 2, 62 nM.

Turning to `CCCCCn1cc(C(=O)c2cccc3ccccc23)cc1-c1ccccc1C`, the Ki on Cannabinoid receptor 1 came to 5.6 nM; on Cannabinoid receptor 2, 4 nM.

With `CCCCCn1cc(C(=O)c2cccc3ccccc23)cc1-c1cccc(F)c1`, the inhibition constant Ki at Cannabinoid receptor 1 was determined as 16 nM; on Cannabinoid receptor 2, 9.1 nM.

With `CCCCCn1cc(C(=O)c2cccc3ccccc23)cc1-c1ccccc1CC`, the Ki on Cannabinoid receptor 1 was found to be 17 nM; at Cannabinoid receptor 2, 3.4 nM.

With `CCCCCn1cc(C(=O)c2cccc3ccccc23)cc1-c1ccc(OC)cc1`, the Ki was found to be 285 nM on Cannabinoid receptor 1 and 41 nM at Cannabinoid receptor 2.

Turning to `CCCCCn1cc(C(=O)c2cccc3ccccc23)cc1-c1ccc2ccccc2c1`, the Ki worked out at 333 nM on Cannabinoid receptor 1 and 169 nM on Cannabinoid receptor 2.

As for `CCCCCn1cc(C(=O)c2cccc3ccccc23)cc1-c1ccc(F)cc1`, the figures for the Ki at Cannabinoid receptor 1 and at Cannabinoid receptor 2 were 41 nM and 33 nM, respectively.

For `CCCCCn1cc(C(=O)c2cccc3ccccc23)cc1-c1cccc(Cl)c1`, the figures for the Ki at Cannabinoid receptor 1 and at Cannabinoid receptor 2 were 70 nM and 16 nM, respectively.

Take `CCCCCCn1cc(C(=O)c2cccc3ccccc23)cc1-c1ccccc1`: the Ki at Cannabinoid receptor 1 is 11 nM; at Cannabinoid receptor 2 it was 7.1 nM.

As to `CCCCCn1cc(C(=O)c2cccc3ccccc23)cc1-c1ccc(C(F)(F)F)cc1`, the figures for the Ki at Cannabinoid receptor 1 and on Cannabinoid receptor 2 were 218 nM and 53 nM, respectively.

`CCCCCn1cc(C(=O)c2cccc3ccccc23)cc1-c1ccccc1CCCC`: the Ki at Cannabinoid receptor 1 was determined as 60 nM; on Cannabinoid receptor 2, 69 nM.

`CCCCCn1cc(C(=O)c2cccc3ccccc23)cc1-c1cccc2ccccc12`: the results for the Ki on Cannabinoid receptor 1 and on Cannabinoid receptor 2 were 41 nM and 49 nM, respectively.

Turning to `CCCCCn1cc(C(=O)c2cccc3ccccc23)cc1-c1ccccc1C(F)(F)F`, the inhibitory constant (Ki) turned out to be 77 nM on Cannabinoid receptor 1 and 8.2 nM at Cannabinoid receptor 2.

As for `CCCCCn1cc(C(=O)c2cccc3ccccc23)cc1-c1ccc(C)cc1`, the figures for the Ki at Cannabinoid receptor 1 and on Cannabinoid receptor 2 were 130 nM and 18 nM, respectively.

In the case of `CCCCCn1cc(C(=O)c2cccc3ccccc23)cc1-c1ccccc1`, the values for the Ki on Cannabinoid receptor 1 and on Cannabinoid receptor 2 were 14 nM and 6.4 nM, respectively.

For the compound `CCCCCn1cc(C(=O)c2cccc3ccccc23)cc1-c1cccc(OC)c1`, the Ki stood at 53 nM at Cannabinoid receptor 1 and 23 nM on Cannabinoid receptor 2.

In the case of `CCCCCn1cc(C(=O)c2cccc3ccccc23)cc1-c1ccc(CC)cc1`, the Ki stood at 34 nM on Cannabinoid receptor 1 and 29 nM on Cannabinoid receptor 2.
